Source: patent US20060223846A1, “Aza-bridged-bicyclic amino acid derivatives as alpha4 integrin antagonists” (priority 2005, published 2006)

What was measured:
[1] = target: α4β1 (Homo sapiens, UniProt P05556+P13612); assay: Ramos Cell Adhesion Assay (α4β1 Mediated Adhesion/VCAM-1); format: cell-based; set-up: Ramos cells, (50 μL at 2×10^6/mL) labeled with 5 μM Calcein AM; endogenous in cells; host or cells: Ramos cells; conditions: Ramos cells on recombinant hVCAM-1; read-out: α4β1 IC50
Protocol: (§1) Ramos Cell Adhesion Assay α4β1 Mediated Adhesion/VCAM-1) Immulon 9.6 well plates (Dynex) were coated with 100 μL recombinant hVCAM-1 at 4.0 μg/mL in 0.05 M NaCO3 buffer pH 9.0 overnight at 4° C. (R&D Systems). Plates were washed 3 times in PBS with 1% BSA and blocked for 1 h @ room temperature in this buffer. PBS was removed and compounds to be tested (50 μL) were added at 2× concentration. Ramos cells, (50 μL at 2×10^6/mL) labeled with 5 μM Calcein AM (Molecular Probes) for 1 h at 37° C., were added to each well and allowed to adhere for 1 h at room temperature. Plates were washed 3× in PBS+1% BSA and cells were lysed for 15 minutes in 100 μL of 1 M Tris pH 8.0 with 1% SDS. The plate was read at 485 nm excitation and 530 nm emission.

[2] = target: T1, human α4β7 (Homo sapiens, UniProt P13612+P26010); assay: α4β7-K562 Cell Adhesion Assay (α4β7 Mediated Adhesion/VCAM-1); format: cell-based; conditions: K562 cells expressing human α4β7 on recombinant hVCAM-1; read-out: α4β7 IC50
T1 construct: expressed in transfected cells
T1 sequence (P13612 34-1032): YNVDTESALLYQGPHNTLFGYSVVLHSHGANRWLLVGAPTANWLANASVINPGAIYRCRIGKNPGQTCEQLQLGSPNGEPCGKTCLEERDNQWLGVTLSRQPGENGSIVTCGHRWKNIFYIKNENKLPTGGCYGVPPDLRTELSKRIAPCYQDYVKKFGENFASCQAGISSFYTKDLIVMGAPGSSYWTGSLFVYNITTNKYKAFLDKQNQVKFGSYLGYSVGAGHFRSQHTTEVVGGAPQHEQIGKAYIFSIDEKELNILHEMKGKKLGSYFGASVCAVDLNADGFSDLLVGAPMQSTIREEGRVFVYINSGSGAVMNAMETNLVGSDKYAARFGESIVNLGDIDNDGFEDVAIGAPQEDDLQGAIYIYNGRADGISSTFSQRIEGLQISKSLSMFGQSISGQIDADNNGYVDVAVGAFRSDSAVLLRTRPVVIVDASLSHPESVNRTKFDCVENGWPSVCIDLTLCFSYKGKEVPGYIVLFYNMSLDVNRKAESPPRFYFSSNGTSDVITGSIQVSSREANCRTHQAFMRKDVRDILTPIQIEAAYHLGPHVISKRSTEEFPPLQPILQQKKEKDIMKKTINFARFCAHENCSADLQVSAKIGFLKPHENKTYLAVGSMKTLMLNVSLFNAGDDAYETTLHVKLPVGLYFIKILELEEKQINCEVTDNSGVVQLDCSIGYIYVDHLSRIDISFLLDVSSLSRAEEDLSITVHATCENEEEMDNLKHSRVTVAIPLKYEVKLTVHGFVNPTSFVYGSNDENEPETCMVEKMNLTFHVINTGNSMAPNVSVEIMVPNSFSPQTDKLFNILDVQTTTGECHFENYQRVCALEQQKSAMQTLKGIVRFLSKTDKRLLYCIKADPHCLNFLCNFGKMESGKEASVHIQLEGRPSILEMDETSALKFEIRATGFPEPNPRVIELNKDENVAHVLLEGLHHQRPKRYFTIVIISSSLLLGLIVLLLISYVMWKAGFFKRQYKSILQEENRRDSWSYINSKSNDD
T1 sequence (P26010 20-798): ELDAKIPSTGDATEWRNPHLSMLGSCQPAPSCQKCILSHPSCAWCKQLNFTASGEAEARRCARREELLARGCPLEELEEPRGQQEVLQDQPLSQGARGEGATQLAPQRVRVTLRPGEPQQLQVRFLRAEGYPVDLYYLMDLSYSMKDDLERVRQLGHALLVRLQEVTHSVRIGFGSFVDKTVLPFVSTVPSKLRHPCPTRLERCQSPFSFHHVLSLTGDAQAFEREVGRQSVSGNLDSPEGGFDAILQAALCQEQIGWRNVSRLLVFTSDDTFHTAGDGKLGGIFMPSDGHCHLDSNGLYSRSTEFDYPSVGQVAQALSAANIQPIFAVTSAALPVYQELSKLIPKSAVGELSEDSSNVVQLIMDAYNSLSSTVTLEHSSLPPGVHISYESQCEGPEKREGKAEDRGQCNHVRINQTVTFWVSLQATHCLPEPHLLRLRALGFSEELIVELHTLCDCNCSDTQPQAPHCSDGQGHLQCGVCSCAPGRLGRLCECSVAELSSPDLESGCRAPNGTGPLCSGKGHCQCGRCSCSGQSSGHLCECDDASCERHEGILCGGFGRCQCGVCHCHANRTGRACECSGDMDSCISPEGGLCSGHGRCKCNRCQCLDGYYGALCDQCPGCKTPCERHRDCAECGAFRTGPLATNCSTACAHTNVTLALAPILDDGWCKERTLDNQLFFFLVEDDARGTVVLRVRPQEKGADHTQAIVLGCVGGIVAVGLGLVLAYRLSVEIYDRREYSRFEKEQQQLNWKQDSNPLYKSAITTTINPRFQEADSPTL
Protocol: as §1, with “α4β7-K562” for “Ramos”, “(α4β7” for “α4β1”, “96” for “9.6”, “System).” for “Systems).”, “A stable cell line of K562 cells expressing human α4β7,” for “Ramos cells,”

α4β1, sequence (P05556 21-798, one chain of several): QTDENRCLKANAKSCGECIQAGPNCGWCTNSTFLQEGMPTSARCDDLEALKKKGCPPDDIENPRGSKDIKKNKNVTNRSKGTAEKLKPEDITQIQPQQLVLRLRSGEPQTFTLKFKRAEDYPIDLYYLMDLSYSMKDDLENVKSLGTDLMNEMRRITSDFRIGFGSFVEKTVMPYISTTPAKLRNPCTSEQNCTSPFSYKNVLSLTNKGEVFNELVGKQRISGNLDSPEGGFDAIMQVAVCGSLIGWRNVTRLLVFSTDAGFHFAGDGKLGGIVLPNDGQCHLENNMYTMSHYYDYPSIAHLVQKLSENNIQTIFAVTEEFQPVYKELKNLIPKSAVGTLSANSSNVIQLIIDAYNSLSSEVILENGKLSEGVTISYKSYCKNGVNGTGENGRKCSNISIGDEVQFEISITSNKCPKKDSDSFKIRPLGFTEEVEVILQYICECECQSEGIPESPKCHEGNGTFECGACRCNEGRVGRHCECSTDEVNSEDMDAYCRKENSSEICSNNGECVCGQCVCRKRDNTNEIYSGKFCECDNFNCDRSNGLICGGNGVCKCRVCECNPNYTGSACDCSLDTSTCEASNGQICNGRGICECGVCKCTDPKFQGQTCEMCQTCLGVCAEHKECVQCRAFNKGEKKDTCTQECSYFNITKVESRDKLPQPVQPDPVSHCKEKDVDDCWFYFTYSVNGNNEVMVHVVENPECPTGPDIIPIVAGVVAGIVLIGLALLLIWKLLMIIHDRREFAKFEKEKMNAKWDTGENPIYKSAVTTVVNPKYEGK

`O=C(Nc1ccc(CC(NC(=O)C2C3CCC(CC3)N2C(=O)OCc2ccccc2)C(=O)O)cc1)c1c(Cl)cncc1Cl` (stereo not shown) [Cpd 42] gave an IC50 [1] of 8 nM and an IC50 [2] of 24 nM.
`O=C(Nc1ccc(CC(NC(=O)C2C3CCC(CC3)N2C(=O)Cc2csc3ccccc23)C(=O)O)cc1)c1c(Cl)cncc1Cl` (stereo not shown) [Cpd 36] gave an IC50 [1] of 55 nM and an IC50 [2] of 66 nM.
Work on `O=C(Nc1ccc(CC(NC(=O)C2C3CCC(CC3)N2C(=O)Cc2c(Cl)cccc2Cl)C(=O)O)cc1)c1c(Cl)cncc1Cl` (stereo not shown) [Cpd 6] yielded an IC50 [1] of 234 nM and an IC50 [2] of 387 nM.
In the case of `O=C(Nc1ccc(CC(NC(=O)C2C3CCC(CC3)N2C(=O)CCc2cccnc2)C(=O)O)cc1)c1c(Cl)cncc1Cl` (stereo not shown) [Cpd 65], the IC50 [1] is reported as 3 nM and the IC50 [2] is reported as 10 nM.
`O=C(Nc1ccc(CC(NC(=O)C2C3CCC(CC3)N2C(=O)OCc2ccccc2)C(=O)O)cc1)c1c(Cl)cncc1Cl` (stereo not shown) [Cpd 64] showed an IC50 [1] of 9 nM and an IC50 [2] of 24 nM.
`COc1cc(CC(=O)N2C3CCC(CC3)C2C(=O)NC(Cc2ccc(NC(=O)c3c(Cl)cncc3Cl)cc2)C(=O)O)cc(OC)c1` (stereo not shown) [Cpd 31] showed an IC50 [1] of 8 nM and an IC50 [2] of 106 nM.
`COc1ccccc1CC(=O)N1C2CCC(CC2)C1C(=O)NC(Cc1ccc(NC(=O)c2c(Cl)cncc2Cl)cc1)C(=O)O` (stereo not shown) [Cpd 29] gave an IC50 [1] of 28 nM and an IC50 [2] of 27 nM.
With `O=C(Nc1ccc(CC(NC(=O)C2C3CCC(CC3)N2C(=O)CCCC2CCCCC2)C(=O)O)cc1)c1c(Cl)cncc1Cl` (stereo not shown) [Cpd 37] the IC50 [1] was 41 nM and the IC50 [2] was 254 nM.
Compound `O=C(Nc1ccc(CC(NC(=O)C2C3CCC(CC3)N2C(=O)Cc2ccc3ccccc3c2)C(=O)O)cc1)c1c(Cl)cncc1Cl` (stereo not shown) [Cpd 7] has an IC50 [1] of 63 nM and an IC50 [2] of 44 nM.
`CC(=Cc1ccccc1)C(=O)N1C2CCC(CC2)C1C(=O)NC(Cc1ccc(NC(=O)c2c(Cl)cncc2Cl)cc1)C(=O)O` (stereo not shown) [Cpd 40] gave an IC50 [1] of 77 nM and an IC50 [2] of 943 nM.
With `O=C(Nc1ccc(CC(NC(=O)C2C3CCC(CC3)N2C(=O)Cc2ccsc2)C(=O)O)cc1)c1c(Cl)cncc1Cl` (mixture of isomers) [Cpd 60] the IC50 [1] was 156 nM and the IC50 [2] was 233 nM.
For `O=C(Nc1ccc(CC(NC(=O)C2C3CCC(CC3)N2C(=O)c2cc(Cl)cc(Cl)c2)C(=O)O)cc1)c1c(Cl)cncc1Cl` (stereo not shown) [Cpd 10], the IC50 [1] was 842 nM and the IC50 [2] was 185 nM.
`O=C(Nc1ccc(CC(NC(=O)C2C3CCC(CC3)N2C(=O)CCc2ccccc2F)C(=O)O)cc1)c1c(Cl)cncc1Cl` (stereo not shown) [Cpd 52] showed an IC50 [1] of 3 nM and an IC50 [2] of 46 nM.
`CCCCCC12CCC(C(=O)N3C4CCC(CC4)C3C(=O)NC(Cc3ccc(NC(=O)c4c(Cl)cncc4Cl)cc3)C(=O)O)(CC1)CC2` (mixture of isomers) [Cpd 13] gave an IC50 [1] greater than 5000 nM and an IC50 [2] greater than 5000 nM.
`O=C(Nc1ccc(CC(NC(=O)C2C3CCC(CC3)N2C(=O)CCc2ccc(Cl)cc2)C(=O)O)cc1)c1c(Cl)cncc1Cl` (stereo not shown) [Cpd 51] gave an IC50 [1] of 3 nM and an IC50 [2] of 24 nM.
`O=C(Nc1ccc(CC(NC(=O)C2C3CCC(CC3)N2C(=O)Cc2ccncc2)C(=O)O)cc1)c1c(Cl)cncc1Cl` (stereo not shown) [Cpd 44] gave an IC50 [1] of 3 nM and an IC50 [2] of 32 nM.
`O=C(Nc1ccc(CC(NC(=O)C2C3CCC(CC3)N2Cc2ccccc2)C(=O)O)cc1)c1c(Cl)cncc1Cl` (stereo not shown) [Cpd 18] showed an IC50 [1] of 543 nM and an IC50 [2] of 309 nM.
`Cc1ccnn1CC(=O)N1C2CCC(CC2)C1C(=O)NC(Cc1ccc(NC(=O)c2c(Cl)cncc2Cl)cc1)C(=O)O` (stereo not shown) [Cpd 15] was tested, and the IC50 [1] was 69 nM and the IC50 [2] was 39 nM.
Work on `O=C(Nc1ccc(CC(NC(=O)C2C3CCC(CC3)N2C(=O)C=Cc2ccc3c(c2)OCO3)C(=O)O)cc1)c1c(Cl)cncc1Cl` (stereo not shown) [Cpd 46] yielded an IC50 [1] greater than 5000 nM and an IC50 [2] of 476 nM.
`COc1cccc(CCC(=O)N2C3CCC(CC3)C2C(=O)NC(Cc2ccc(NC(=O)c3c(Cl)cncc3Cl)cc2)C(=O)O)c1` (stereo not shown) [Cpd 49] gave an IC50 [1] of 1 nM and an IC50 [2] of 9 nM.
With `CC(C)(C)CC(=O)N1C2CCC(CC2)C1C(=O)NC(Cc1ccc(NC(=O)c2c(Cl)cncc2Cl)cc1)C(=O)O` (stereo not shown) [Cpd 27] the IC50 [1] was 386 nM and the IC50 [2] was 834 nM.
Compound `CC(C)(C)CC(=O)N1C2CCC(CC2)C1C(=O)NC(Cc1ccc(NC(=O)c2c(Cl)cncc2Cl)cc1)C(=O)O` (single isomer, unassigned) [Cpd 34] has an IC50 [1] of 14 nM and an IC50 [2] of 47 nM.
`COc1cccc(CC(=O)N2C3CCC(CC3)C2C(=O)NC(Cc2ccc(NC(=O)c3c(Cl)cncc3Cl)cc2)C(=O)O)c1` (stereo not shown) [Cpd 1] was tested, and the IC50 [1] was 156 nM and the IC50 [2] was 93 nM.
